Legend:
dermis and epidermis = conditions: topical application, not intraperitoneal; cited from earlier work
burns = conditions: small quantities in drinking water, excision and grafting, after 5 weeks; cited from earlier work
heart wounds = conditions: 500 ngs continuously, slow release pellet; cited from earlier work
excisional wounds = conditions: cited from earlier work
[1] = system: burned and blistered area of the right thigh; assay: Topical T-3 in Silvadene ointment on a burn
[2] = system: wounds such as lacerations; assay: Lacerations treated with continuous topical T-3 or TriAc; assay type: in vivo, human; conditions: continuous topical application, in approximately three days
TSH = conditions: topically applied, humans; cited from earlier work

SMILES	growth of the dermis and epidermis (dermis and epidermis)	healing rate of burns (burns)	healing of heart wounds (heart wounds)	healing of excisional non thermal wounds (excisional wounds; eurythroid mouse, daily)	wound healing (excisional wounds; intraperitoneal, hypothyroid mice)	cellular debris and signs of inflammation ([1]; T-3 1 mg in 30 ml Silvadene ointment, daily for two weeks)	appearance of the treated area ([1]; after 6 weeks)	signs of inflammation [2]	effect on TSH levels or other thyroid hormone function tests (TSH)
N[C@@H](Cc1cc(I)c(Oc2ccc(O)c(I)c2)c(I)c1)C(=O)O [T-3, 3,5,3′-triiodothyronine]	affect the growth of the dermis and epidermis	no change in the healing rate	decreased healing of heart wounds	accelerates the healing	improved wound healing	more cellular debris and signs of inflammation	less reddened areas and had less discolored skin	increased signs of inflammation	–
N[C@@H](Cc1cc(I)c(Oc2cc(I)c(O)c(I)c2)c(I)c1)C(=O)O [T-4, thyroxine]	–	–	–	–	–	–	–	–	no effect on TSH levels
